Laboratory results: patent US20060111408A1, “Therapeutic benzothiazole compounds” (priority 2000, published 2006)

How the values were obtained:
αER = molecular target: T1, αER (Homo sapiens, UniProt P03372); experiment: Cell-based assay for ER transcriptional activity (ERE β-gal reporter), αER-transfected 293 cells; details: for EC50: 293 cells transfected with αER and ERE β-gal reporter, read-out: ERE α-ER EC50; for ERE α-ER Max: 293 cells transfected with αER, max controls 10 nM beta-estradiol
T1 construct: expressed in transfected cells; host or cells: 293 cells (Human Embryonic Kidney, ATCC CRL-1573); the transfection step says 293T
T1 sequence (P03372 1-595): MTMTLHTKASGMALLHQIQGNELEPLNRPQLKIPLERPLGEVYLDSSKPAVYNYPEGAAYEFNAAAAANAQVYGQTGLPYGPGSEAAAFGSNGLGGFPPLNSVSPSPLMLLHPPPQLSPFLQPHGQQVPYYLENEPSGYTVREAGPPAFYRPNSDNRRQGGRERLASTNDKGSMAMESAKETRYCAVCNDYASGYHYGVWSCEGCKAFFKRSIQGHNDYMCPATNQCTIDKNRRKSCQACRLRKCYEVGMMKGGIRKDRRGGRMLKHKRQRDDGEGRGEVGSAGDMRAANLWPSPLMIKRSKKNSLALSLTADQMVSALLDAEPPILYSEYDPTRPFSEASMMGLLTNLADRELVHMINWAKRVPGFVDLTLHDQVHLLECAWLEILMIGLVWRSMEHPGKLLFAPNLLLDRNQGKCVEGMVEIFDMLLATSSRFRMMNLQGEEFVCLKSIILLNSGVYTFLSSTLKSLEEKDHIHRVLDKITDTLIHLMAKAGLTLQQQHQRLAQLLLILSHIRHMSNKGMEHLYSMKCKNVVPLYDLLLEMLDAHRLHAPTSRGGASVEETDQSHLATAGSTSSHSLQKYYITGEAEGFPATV
Protocol: (§1) Cell-based Assay for ER Transcriptional Activity:
(§2) ERs are ligand-dependent transcription factors that bind the promoter regions of genes at a consensus DNA sequence called the estrogen responsive element (ERE). The ER agonist or antagonist activity of a drug was determined by measuring the amount of reporter enzyme activity expressed from a plasmid under the control of an estrogen-responsive element when cells transiently transfected with ER and the reporter plasmid were exposed to drug. These experiments were conducted according to the following methods.
(§3) Cells are grown in DMEM supplemented with 10% FBS, glutamine, sodium pyruvate and penicillin/streptomycin. Cells are grown to 80% confluency and split 1:10 or 1:20.
(§4) 2. The next day the media is changed, 1 hour prior to transfection, to fresh phenol red-free DMEM 10% FBS (charcoal stripped) and supplements.
(§5) 3. Transfections are performed using the Profection Kit from Promega #El 200, this kit is based on calcium phosphate mediated transfection. Reagents are added in sterile polystyrene tubes in the following order:
(§6) 6. The day after transfection, cells are washed 2× with PBS Ca Mg freePBS containing 1 mM EGTA pH=7.6. […] Trypsin is neutralized with 6 ml DMEM (no phenol red)+10% charcoal stripped FBS. Cells are pelleted at 1000×g for 5 min. Cell pellet is resuspended in 10 ml DMEM (no phenol red)+2% charcoal stripped FBS supplemented with glutamine and Penn/Strep and the cells are counted. Additional medium is added to dilute the cell density to 500,000 cells/ml.
(§7) 7. […] Plates are incubated for approx. 2-4 hours to allow cells to attach.
(§8) 8. Compounds are prepared at concentration of 4 mM in 100% DMSO, then diluted into medium with supplements but no serum. The first 2 dilutions are done in medium with no DMSO, then the remaining dilutions are in medium plus 0.5% DMSO to keep the vehicle constant. Max controls are 10 nM beta-estradiol and background controls are 0.5% DMSO. Compounds are normally tested in the range of 10 uM to 1 nM and are prepared at twice the concentration to be tested. The compounds are added to the cell plates, 50 ul per well. All compounds are tested with an n=4 wells for single poke and n=2 for 9-pt curves.
(§9) 9. Cells are incubated overnight at 37° C. with the compounds.
(§10) 1. After 18-24 hr of stimulation, 100 ul of 7% CPRG cocktail is added to each well, the plate is incubated at 37C for approximately 30 minutes to 2 hours or until the OD reaches between 1.0 and 2.0.
(§11) 2. The plates are read on a spectrophotometric plate reader (Spectramax, Molecular Devices) at 570 nm and raw absorbances are obtained.
(§12) Data is compiled and interpreted with Excel using XLFit or GraphPad Prism to fit concentration-response curves.

βER = molecular target: T2, βER (Homo sapiens, UniProt Q92731); experiment: Cell-based assay for ER transcriptional activity (ERE β-gal reporter), βER-transfected 293 cells; details: for EC50: 293 cells transfected with βER and ERE β-gal reporter; for Emax: HEK293, 293 cells transfected with βER, max controls 10 nM beta-estradiol; for ERE Selectivity: β-ER over α-ER, from ERE EC50 values
T2 construct: expressed in transfected cells; host or cells: 293 cells (Human Embryonic Kidney, ATCC CRL-1573); the transfection step says 293T
Protocol: as §1, §2, §3, §4, §5, §6, §7, §8, §9, §10, §11, §12

human recombinant ERβ = molecular target: T3, human recombinant ERβ (Homo sapiens, UniProt Q92731); experiment: Fluorescence polarization estrogen receptor (ERFP) binding assay, ERβ; details: for Ki: fluorescence polarization competition with Fluormone ES2, IC50 converted to Ki by Kenakin formula, read-out: FP β-ER Ki; for FP Selectivity: β-ER over α-ER, from FP Ki values
T3 construct: purchased PanVera (Madison, Wis.)
Protocol: (§13) Abbreviated Procedure for Fluorescence Polarization Estrogen Receptor (ERFP) Binding Assay
(§14) A homogeneous mix-and-measure estrogen receptor (ER) binding assay which utilizes fluorescence polarization (FP) technology is used to identify compounds with affinity for the estrogen receptor. Purchased from PanVera (Madison, Wis.), assay reagents include purified human recombinant ERα, human recombinant ERβ, ES2 screening buffer (100 mM potassium phosphate, pH 7.4, 100 μg/mL bovine gamma globulin), and Fluormone™ ES2.
(§15) For competition binding experiments, dilutions of test compounds are prepared at 2× the final assay concentration in 0.2% DMSO in ES2 Screening buffer on TECAN Genosys, and 25 μL compound/well is dispensed into black Costar ½ volume 96-well plates. […] Plates are gently shaken for at least 5 minutes to mix and incubated for at least 1 hr 45 minutes to achieve equilibrium. (Reaction mixtures are stable for up to 5 hours).
(§16) Polarized fluorescence intensity values are collected and subsequently converted electronically to millipolarization (mp) values. Following data reduction and normalization with Excel and/or Prism software, % Ctrl values at the various test concentrations are used to obtain IC50 values via non-linear regression analysis of a four-parameter logistic equation.

human recombinant ERα = molecular target: T4, human recombinant ERα (Homo sapiens, UniProt P03372); experiment: Fluorescence polarization estrogen receptor (ERFP) binding assay, ERα; details: fluorescence polarization competition with Fluormone ES2; IC50 converted to Ki by Kenakin formula; read-out: FP α-ER Ki
T4 construct: purchased PanVera (Madison, Wis.)
T4 sequence (P03372 1-595): T1 sequence (P03372 1-595)
Protocol: as §13, §14
as §15, with “hours). After centrifugation to remove air bubbles, plates are read on an LJL Analyst or Acquest equipped with Criterion software at the following settings: Fluorescence Polarization Mode; Static Polarizer on Excitation Side; Dynamic Polarizer on Emission Side; Excitation λ=485+/−10 nm; Emission λ=520+/−12.5 nm.” for “hours).”
as §16
Reference: Bolger et al., Rapid Screening of Environmental Chemicals for Estrogen Receptor Binding Capacity, Environmental Health Pespectives: 106 (1998), 1-7.

T2 sequence (Q92731 54-530 limits assumed): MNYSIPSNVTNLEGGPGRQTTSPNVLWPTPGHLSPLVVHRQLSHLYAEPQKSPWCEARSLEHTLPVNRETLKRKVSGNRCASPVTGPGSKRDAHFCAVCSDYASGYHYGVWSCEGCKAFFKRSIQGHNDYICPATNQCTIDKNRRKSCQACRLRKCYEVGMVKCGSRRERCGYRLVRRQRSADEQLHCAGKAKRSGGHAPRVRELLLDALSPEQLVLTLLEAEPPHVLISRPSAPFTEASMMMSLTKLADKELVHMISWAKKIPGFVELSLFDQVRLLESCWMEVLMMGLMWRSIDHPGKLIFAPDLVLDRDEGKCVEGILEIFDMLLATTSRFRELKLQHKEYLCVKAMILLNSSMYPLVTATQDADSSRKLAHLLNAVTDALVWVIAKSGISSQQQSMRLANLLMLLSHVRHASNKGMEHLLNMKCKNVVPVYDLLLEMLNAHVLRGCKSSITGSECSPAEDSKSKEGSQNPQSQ
T3 sequence (Q92731 whole entry): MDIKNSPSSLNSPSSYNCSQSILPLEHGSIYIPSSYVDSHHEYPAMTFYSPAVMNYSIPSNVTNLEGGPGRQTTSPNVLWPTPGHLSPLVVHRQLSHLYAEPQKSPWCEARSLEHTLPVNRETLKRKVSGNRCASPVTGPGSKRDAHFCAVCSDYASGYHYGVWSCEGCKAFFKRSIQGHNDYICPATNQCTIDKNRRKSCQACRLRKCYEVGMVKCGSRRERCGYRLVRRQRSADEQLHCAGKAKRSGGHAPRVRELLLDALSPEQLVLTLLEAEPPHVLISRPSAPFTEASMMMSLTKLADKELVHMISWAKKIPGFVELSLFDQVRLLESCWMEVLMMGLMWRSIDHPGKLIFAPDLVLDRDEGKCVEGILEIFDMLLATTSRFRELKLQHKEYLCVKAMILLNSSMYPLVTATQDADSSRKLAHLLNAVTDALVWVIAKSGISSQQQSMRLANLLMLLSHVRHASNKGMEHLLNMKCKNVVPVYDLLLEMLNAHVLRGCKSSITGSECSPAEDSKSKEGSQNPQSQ

SMILES	EC50 (αER) [nM]	ERE α-ER Max (αER) [%]	EC50 (βER) [nM]	Emax (βER) [%]	ERE Selectivity (βER)	Ki (human recombinant ERβ) [nM]	FP Selectivity (human recombinant ERβ)	Ki (human recombinant ERα) [nM]
Oc1ccc(-c2nc3c(Cl)cc(O)cc3o2)cc1 [Example 1, 4-Chloro-6-hydroxy-2-(4-hydroxyphenyl)benzoxazole]	61	103	1.2	98	52	1.7	10	18
Cc1cc(O)cc2oc(-c3ccc(O)cc3)nc12 [Example 3, 6-Hydroxy-2-(4-hydroxyphenyl)-4-methylbenzoxazole]	497	102	23	89	22	4.8	25	121
COc1ccc2oc(-c3ccc(O)cc3)nc2c1 [Example 8, 2-(4-hydroxyphenyl)-5-methoxybenzoxazole]						148	3	477
Oc1ccc(-c2nc3c(O)cc(O)cc3o2)cc1 [Example 5, 4,6-Dihydroxy-2-(4-hydroxyphenyl)benzoxazole]		102		98	1.8	290	3	1000
Oc1cc(Br)c2oc(-c3ccc(O)c(Cl)c3)nc2c1 [Example 12, 7-Bromo-2-(3-chloro-4-hydroxy-phenyl)-benzooxazol-5-ol]	76	37	0.5	81	153	1.8	30	54
